SMILES strings stand for the structures.

The nature of this series: pH of 0.005 molar solution in 15% methanol/85% water. It is filed as physicochemical. The source says:
TABLE I also includes vapor pressure (VP) and pKa values for the various backside stabilizers.
With `N=C(Nc1ccccc1)Nc1ccccc1` [AB-8], the pH came to 10.6.

Compound `OCCN(CCO)CCO` [AB-5] registered a pH of 9.1.

In turn, `CN(C)C(=N)N(C)C` [AB-3] gave a pH of 11.8.

Turning to `c1ccc(CN(Cc2ccccc2)Cc2ccccc2)cc1` [AB-9], the pH amounted to 8.6.

For `c1ccc(Nc2ccccn2)nc1` [AB-7], the pH was 8.5.

The compound `C1CNCCN1` [AB-1] showed a pH of 10.4.

The compound `C1CCC2=NCCCN2CC1` [AB-6, 1,8-diazabicyclo[5.4.0]undec-7-ene] came in with a pH of 11.8.

As for `C1CN2CCN1CC2` [AB-2], the pH came to 9.8.

These data come from patent US7094524B2, “Thermally development imaging materials having backside stabilizers” (Eastman Kodak Company, priority 2003, dated 2006).
